Measurements as given in US9351955B2, “Compounds and pharmaceutical compositions thereof for the treatment of cystic fibrosis” (Galapagos NV, priority 2013, dated 2016).

What was measured:
Format in all cases: cell-based
[1] = biological target: T1, CFTR-G1349D (Homo sapiens, UniProt P13569, G1349D); assay: YFP-halide influx assay for the CFTR-G1349D; settings: CFTR-G1349D mutant; read-out: EC50 measured by YFP-halide influx assay for the CFTR-G1349D
T1 construct: expressed in transfected cells
T1 sequence (P13569 whole entry G1349D): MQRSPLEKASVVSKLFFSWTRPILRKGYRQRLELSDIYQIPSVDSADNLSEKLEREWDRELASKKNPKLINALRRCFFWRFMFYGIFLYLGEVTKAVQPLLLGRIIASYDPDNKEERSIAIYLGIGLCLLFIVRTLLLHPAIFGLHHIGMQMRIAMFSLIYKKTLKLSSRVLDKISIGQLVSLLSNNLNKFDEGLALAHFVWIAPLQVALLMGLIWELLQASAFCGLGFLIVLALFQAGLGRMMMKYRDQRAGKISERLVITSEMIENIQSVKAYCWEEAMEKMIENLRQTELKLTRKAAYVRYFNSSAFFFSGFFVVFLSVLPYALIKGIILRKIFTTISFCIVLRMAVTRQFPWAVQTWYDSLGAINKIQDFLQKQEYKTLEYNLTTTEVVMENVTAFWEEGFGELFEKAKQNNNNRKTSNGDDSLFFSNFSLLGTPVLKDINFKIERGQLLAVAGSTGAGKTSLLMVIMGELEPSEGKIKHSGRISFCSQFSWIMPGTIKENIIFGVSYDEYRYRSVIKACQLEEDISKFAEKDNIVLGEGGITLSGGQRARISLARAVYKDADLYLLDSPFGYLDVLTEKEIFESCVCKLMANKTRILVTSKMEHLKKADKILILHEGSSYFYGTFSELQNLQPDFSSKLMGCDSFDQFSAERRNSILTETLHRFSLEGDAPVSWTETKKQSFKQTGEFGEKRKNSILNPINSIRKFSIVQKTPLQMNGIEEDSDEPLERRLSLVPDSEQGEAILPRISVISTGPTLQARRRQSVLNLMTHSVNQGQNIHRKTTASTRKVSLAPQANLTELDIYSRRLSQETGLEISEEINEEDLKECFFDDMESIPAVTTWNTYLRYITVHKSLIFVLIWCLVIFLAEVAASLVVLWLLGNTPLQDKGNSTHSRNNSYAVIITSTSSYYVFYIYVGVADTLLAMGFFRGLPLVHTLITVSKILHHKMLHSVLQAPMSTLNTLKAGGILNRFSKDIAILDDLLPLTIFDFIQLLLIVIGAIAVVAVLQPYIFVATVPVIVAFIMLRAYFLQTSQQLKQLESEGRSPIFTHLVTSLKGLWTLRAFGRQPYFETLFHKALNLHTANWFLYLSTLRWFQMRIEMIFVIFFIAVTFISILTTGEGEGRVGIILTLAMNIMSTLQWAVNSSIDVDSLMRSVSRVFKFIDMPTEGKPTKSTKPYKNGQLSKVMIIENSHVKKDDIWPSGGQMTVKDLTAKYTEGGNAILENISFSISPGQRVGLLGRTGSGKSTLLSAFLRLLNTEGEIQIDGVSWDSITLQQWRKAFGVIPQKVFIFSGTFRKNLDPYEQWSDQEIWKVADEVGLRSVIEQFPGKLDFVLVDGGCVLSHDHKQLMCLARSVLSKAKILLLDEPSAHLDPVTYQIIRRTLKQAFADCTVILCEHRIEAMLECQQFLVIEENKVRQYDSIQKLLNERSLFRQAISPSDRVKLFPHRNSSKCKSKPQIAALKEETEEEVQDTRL
Description: (§1) The YFP halide influx assay measures the functionality of the cystic fibrosis Transmembrane Conductance regulator (CFTR) channels. The assay is used to evaluate the capacity of compounds to increase the channel opening of existing mutant CFTR channels in the membrane. It makes use of the observation that the yellow fluorescent protein (YFP) variant YFP H148Q, I152L, F47L has its fluorescence substantially quenched by halide ions like Cl^− and I^−. (Galietta et al., 2001)
(§2) For this purpose, HEK293-cells are seeded in 96 well plates. During seeding, the cells are reverse-transfected with plasmid vectors that direct the expression of the CFTR G551D mutant and of the YFP reporter. Cells are incubated at 37° C., 5% CO2 for 24 hours so as to allow for sufficient expression of the CFTR protein.
(§3) The I^−-induced quenching of fluorescence is recorded immediately after injection of I^− for 7 seconds. The capacity of a compound to increase the channel opening is directly correlated with the decrease in fluorescence, and is expressed as (1−(fluorescence after 7 seconds (F)/fluorescence before injection (F0))) and an EC50 can be derived from a (1−F/F0) vs compound concentration plot.
(§4) Similar YHA assays were developed for other channel gating defective or channel conductance defective CFTR mutants to determine effect of compound on channel activity. Examples of mutants are G178R, G1349D, S549N, R117H, R334W. This assay is also used for additional class I CFTR mutants, including G542X, W1282X; class II mutants including N1303K, and for class III mutants including S1251N; or wild-type CFTR.

[2] = biological target: CFTR G551D (Homo sapiens, UniProt P13569, G551D); assay: TECC assay, FRT cells stably transfected with G551D CFTR; settings: high expression CFTR-G551D cells, several values in a cell = repeat determinations
Sequence of CFTR G551D (P13569 whole entry G551D): as the sequence (P13569 whole entry G1349D) above, with G551D, D1349G counted along it
Experimental: 7.2.3. FRT-CFTR G551D Protocol
For G551D recordings, Fish Rat Thyroid (FRT) cells stably transfected with G551D CFTR (a low CFTR-G551D expressing cell line and a high expressing CFTR-G551D cell line from Rosalind Franklin University of medicine and science, Chicago, Ill.) are plated on Transwell supports (Costar 6.5 mm Diameter, […]). The cells are grown for 8-10 d under liquid-liquid interface conditions prior to electrophysiological readings. For electrophysiological recording, the FRT-G551D cells are mounted in the TECC heating plate for electrophysiological measurement and kept at 37° C. The epithelia are bathed in hepes buffered culturing medium without FBS on both the basolateral and apical sides. Apical amiloride is used to inhibit the endogenous ENaC currents while forkolin is applied on both apical and basolateral side to stimulate CFTR. After forskolin triggering, compounds are added on both sides to test their potential for increasing CFTR gating. Measurements are done during a 10 minute timeframe with recordings every 2 min. The increase in ISC is used as a measure for the increased CFTR activity, EC50 values can be generated by measuring impact of different concentrations of compound on ISC on the cells, for this purpose each transwell is treated with a different compound concentration. Inh-172, an inhibitor specific for CFTR, is used to test the specificity of the tested compounds.
When subjected to this protocol, the following EC50 are measured.

[3] = biological target: T2, CFTR ΔF508 mutant (Homo sapiens, UniProt P13569, DEL508-508); assay: YFP-halide influx assay for the CFTR-ΔF508 mutation (384 well, CFBE41o- cells, FDSS/μCell); settings: forskolin 10.67 μM, fluorescence after 36 seconds, read-out: EC50 measured by YFP-halide influx assay for the CFTR-ΔF508
T2 construct: expressed in transfected cells; host or cells: CFBE41o- (adenoviral transduction)
T2 sequence (P13569 with tags, fused parts or gaps DEL508-508): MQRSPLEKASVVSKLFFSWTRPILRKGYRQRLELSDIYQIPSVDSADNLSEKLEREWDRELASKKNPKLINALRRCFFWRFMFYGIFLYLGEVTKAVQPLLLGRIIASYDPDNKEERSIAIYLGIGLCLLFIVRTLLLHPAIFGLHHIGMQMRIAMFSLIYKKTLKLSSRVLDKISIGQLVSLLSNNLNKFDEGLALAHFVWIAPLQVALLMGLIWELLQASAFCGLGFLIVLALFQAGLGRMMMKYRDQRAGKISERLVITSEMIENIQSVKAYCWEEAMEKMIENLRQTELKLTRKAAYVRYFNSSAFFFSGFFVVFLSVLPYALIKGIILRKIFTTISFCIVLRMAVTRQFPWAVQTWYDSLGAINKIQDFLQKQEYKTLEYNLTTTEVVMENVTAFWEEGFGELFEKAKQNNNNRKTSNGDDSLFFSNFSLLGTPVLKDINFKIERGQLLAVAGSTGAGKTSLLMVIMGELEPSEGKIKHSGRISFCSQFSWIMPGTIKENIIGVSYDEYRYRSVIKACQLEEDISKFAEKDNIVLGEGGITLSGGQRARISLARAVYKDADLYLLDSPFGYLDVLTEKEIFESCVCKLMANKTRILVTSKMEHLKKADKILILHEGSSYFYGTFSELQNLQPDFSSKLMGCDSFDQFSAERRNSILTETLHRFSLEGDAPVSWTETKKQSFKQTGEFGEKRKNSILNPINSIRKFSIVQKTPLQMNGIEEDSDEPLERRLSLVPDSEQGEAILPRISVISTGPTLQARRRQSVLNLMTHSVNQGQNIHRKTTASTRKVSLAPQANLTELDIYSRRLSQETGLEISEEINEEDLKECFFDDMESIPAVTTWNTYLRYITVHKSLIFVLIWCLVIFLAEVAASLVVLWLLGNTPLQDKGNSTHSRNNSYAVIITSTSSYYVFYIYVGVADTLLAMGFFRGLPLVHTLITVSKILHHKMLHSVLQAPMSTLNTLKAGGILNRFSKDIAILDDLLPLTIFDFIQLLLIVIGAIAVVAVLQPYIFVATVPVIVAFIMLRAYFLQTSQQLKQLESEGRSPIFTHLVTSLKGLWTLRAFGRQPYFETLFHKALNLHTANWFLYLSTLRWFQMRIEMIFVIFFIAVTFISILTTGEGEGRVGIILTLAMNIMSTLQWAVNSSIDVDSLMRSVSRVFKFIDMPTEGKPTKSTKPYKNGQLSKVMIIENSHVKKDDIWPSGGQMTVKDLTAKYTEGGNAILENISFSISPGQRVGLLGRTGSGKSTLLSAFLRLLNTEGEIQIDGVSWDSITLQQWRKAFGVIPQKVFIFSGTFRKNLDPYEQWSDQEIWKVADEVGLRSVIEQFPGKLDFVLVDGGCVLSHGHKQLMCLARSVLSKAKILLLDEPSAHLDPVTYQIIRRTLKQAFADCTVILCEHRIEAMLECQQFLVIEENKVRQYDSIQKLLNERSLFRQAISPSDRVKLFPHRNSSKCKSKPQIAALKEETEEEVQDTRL
Procedure, shortened: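 CFBE41o- cells were adenovirally transduced with ΔF508 CFTR and the YFP H148Q/I152L reporter. Cells were then held 24 h at 27 °C or treated 24 h at 37 °C with a CFTR modulator. Iodide-induced quench was recorded for 2 min, and EC50 was derived from 1−F/F0 at 36 s against compound concentration.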

[4] = biological target: T3, CFTR-R117H (Homo sapiens, UniProt P13569, R117H); assay: YFP-halide influx assay for the CFTR-R117H; settings: CFTR-R117H mutant; read-out: EC50 measured by YFP-halide influx assay for the CFTR-R117H
T3 construct: expressed in transfected cells
T3 sequence (P13569 whole entry R117H): as the sequence (P13569 whole entry G1349D) above, with R117H, D1349G counted along it
Description: as §1, §2, §3, §4

[5] = biological target: T4, CFTR-G178R (Homo sapiens, UniProt P13569, G178R); assay: YFP-halide influx assay for the CFTR-G178R; settings: read-out: EC50 measured by YFP-halide influx assay for the CFTR-G178R
T4 construct: expressed in transfected cells
T4 sequence (P13569 whole entry G178R): as the sequence (P13569 whole entry G1349D) above, with G178R, D1349G counted along it
Description: as §1, §2, §3, §4

[6] = biological target: T5, CFTR-S549N (Homo sapiens, UniProt P13569, S549N); assay: YFP-halide influx assay for the CFTR-S549N; settings: CFTR-S549N mutant; read-out: EC50 measured by YFP-halide influx assay for the CFTR-S549N
T5 construct: expressed in transfected cells
T5 sequence (P13569 whole entry S549N): as the sequence (P13569 whole entry G1349D) above, with S549N, D1349G counted along it
Description: as §1, §2, §3, §4

[7] = biological target: T6, CFTR G551D mutant (Homo sapiens, UniProt P13569, G551D); assay: YFP-halide influx assay for the CFTR-G551D mutation (HEK293 cells); settings: HEK293 cells expressing CFTR G551D and YFP reporter; forskolin 10.67 μM; read-out: EC50 measured by YFP-halide influx assay for the CFTR-G551D
T6 construct: expressed in transfected cells; host or cells: HEK293 (reverse transfection with plasmids)
T6 sequence (P13569 whole entry G551D): as the sequence (P13569 whole entry G1349D) above, with G551D, D1349G counted along it
Procedure, shortened: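 HEK293 cells reverse-transfected with CFTR G551D and halide-sensitive YFP, expressed 24 h at 37 °C. Iodide-induced fluorescence quench recorded for 7 s after I^− injection; response as 1−F/F0, EC50 from concentration plot.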

[8] = biological target: T7, CFTR ΔF508 (Homo sapiens, UniProt P13569, DEL508-508); assay: TECC assay, primary bronchial epithelial cells from CF patients homozygous for CFTR ΔF508; settings: primary bronchial epithelial cells, CFTR ΔF508; several values in a cell = repeat determinations
T7 construct: host or cells: primary bronchial epithelial cells from CF patients homozygous for ΔF508, pre-treated with VX809
T7 sequence (P13569 with tags, fused parts or gaps DEL508-508): as the sequence (P13569 with tags, fused parts or gaps DEL508-508) above
Experimental: 7.2.1. Primary Bronchial Epithelial Cells Protocol
The TECC (Tranepithelial Clamp Circuit, EP-design) assay measures the functionality of the cystic fibrosis Transmembrane Conductance regulator (CFTR) by measuring the short circuit current (ISC) generated over the basolateral and apical membrane of lung epithelial cells. In TECC the transepithelial potential PD and transepithelial resistance (Rt) are measured in an open circuit and transformed to ISC using Ohm's law. 24 wells can be measured simultaneously allowing a higher throughput compared to Ussing chambers.
For this purpose, bronchial epithelial cells isolated from CF patients homozygous for the CFTR ΔF508 mutation (hAEC-CF, Epithelix) are plated on type IV collagen-coated Transwell supports (Costar). Human airway epithelia are generated by provision of an air-liquid interface for 21 days to form well-differentiated polarized cultures that resemble in vivo pseudo-stratified ciliated epithelium (Fulcher et al., 2005). In the case of the homozygous ΔF508 CFTR samples, the differentiated cells are treated with 3 μM VX809 (2626 South Loop West, Suite 225, Houston, Tex. 77054 USA, Cat n#51565) to allow sufficient expression of properly folded CFTR protein on the membrane (48 hours basolateral treatment and 24 hours apical treatment), prior to electrophysiological recordings. […] G551D/ΔF508, differentiated cells are used as such for the recordings.
Information on the compounds can be retrieved on the homozygous ΔF508 CFTR samples looking at increased CFTR activity when compounds are added in an acute mode or in a chronic mode. On G551D/ΔF508 CFTR heterozygous samples compounds are added in an acute mode to the differentiated cells.
For the acute mode, for electrophysiological recording, the human airway epithelia are mounted in the TECC heating plate for electrophysiological measurement and kept at 37° C. The epithelia are bathed in a NaCl-Ringer solution (120 mM NaCl, 25 mM NaHCO3, 1.2 mM CaCl2, 1.2 mM MgCl2, 0.8 mM KH2PO4, 0.8 mM K2HPO4, pH 7.4, 5 mM glucose) on both the basolateral and apical sides. Apical amiloride is used to inhibit the endogenous ENaC currents while forkolin is applied on both apical and basolateral side to stimulate CFTR. After forskolin triggering, compounds are added on both sides to test their potential for increasing CFTR gating. Measurements are done during a 20 minute timeframe with recordings every 2 minutes. The increase in ISC is used as a measure for the increased CFTR activity, EC50 values can be generated by measuring impact of different concentrations of compound on ISC on primary cells, for this purpose each transwell is treated with a different compound concentration. Inh-172, an inhibitor specific for CFTR, is used to test the specificity of the tested compounds.
For the chronic mode, the differentiated cells are treated with 3 μM VX809 (2626 South Loop West, Suite 225, Houston, Tex. 77054 USA, Cat n#51565) and potentiator compounds at different concentrations (48 hours basolateral treatment and 24 hours apical treatment), prior to electrophysiological recordings. For electrophysiological recording, the human airway epithelia are mounted in the TECC heating plate for electrophysiological measurement and kept at 37° C. […]

[9] = biological target: T2, CFTR ΔF508 mutant; assay: YFP-halide influx assay for the CFTR-ΔF508 mutation (96 well, CFBE41o- cells); settings: compounds of the invention, 96 well, forskolin 10.67 μM, read-out: EC50 measured by YFP-halide influx assay for the CFTR-ΔF508
Procedure, shortened: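 CFBE41o- cells were adenovirally transduced with CFTR ΔF508 and the halide-sensitive YFP H148Q/I152L. They were then corrected either at 27 °C for 24 h or with a CFTR modulator for 24 h at 37 °C. After iodide injection, YFP quenching over 7 s was expressed as 1−F/F0, and EC50 was derived from the concentration–response plot.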

| SMILES | EC50 [1] [nM] | EC50 [2] [nM] | EC50 [3] [nM] | EC50 [4] [nM] | EC50 [5] [nM] | EC50 [6] [nM] | EC50 [7] [nM] | EC50 [8] [nM] | EC50 [9] [nM] |
| --- | --- | --- | --- | --- | --- | --- | --- | --- | --- |
| CC1(C)Cc2c(sc(NC(=O)c3cnco3)c2C(N)=O)C(C)(C)O1 [Compound 136, N-(3-carbamoyl-5,5,7,7-tetramethyl-4H-thieno[2,3-c]pyran-2-yl)oxazole-5-carboxamide] | 1190 | 62500 | 81.5 | 807 | 786 | 2610 | 2530 | – | – |
| CC1(C)Cc2c(sc(NC(=O)C3(O)CCOCC3)c2C(N)=O)C(C)(C)O1 [Compound 154, 2-[(4-hydroxytetrahydropyran-4-carbonyl)amino]-5,5,7,7-tetramethyl-4H-thieno[2,3-c]pyran-3-carboxamide] | 3330 | – | 62.5 | 1580 | 3330 | 2370 | – | 502 | – |
| CC(C)(C)CC(O)C(=O)Nc1sc2c(c1C(N)=O)CC(C)(C)OC2(C)C (single isomer, unassigned) [Compound 110, 2-[[2-hydroxy-4,4-dimethyl-pentanoyl]amino]-5,5,7,7-tetramethyl-4H-thieno[2,3-c]pyran-3-carboxamide] | 142 | 193 | 0.66 | 49.9 | 22.5 | 261 | 209 | – | – |
| CC1(C)Cc2c(sc(NC(=O)c3cc(C4CC4)[nH]n3)c2C(N)=O)C(C)(C)O1 [Compound 13, N-(3-carbamoyl-5,5,7,7-tetramethyl-5,7-dihydro-4H-thieno[2,3-c]pyran-2-yl)-5-cyclopropyl-1H-pyrazole-3-carboxamide] | 75.3 | – | 6.13 | 177 | 98.8 | 158 | 198 | – | 17.9 |

Other lines, results leading:

| EC50 [1] [nM] | EC50 [2] [nM] | EC50 [3] [nM] | EC50 [4] [nM] | EC50 [5] [nM] | EC50 [6] [nM] | EC50 [7] [nM] | EC50 [8] [nM] | EC50 [9] [nM] | SMILES |
| --- | --- | --- | --- | --- | --- | --- | --- | --- | --- |
| 120 | – | 6.67 | 435 | 54.4 | 293 | 730 | 54.4 | – | COCc1c[nH]nc1C(=O)Nc1sc2c(c1C(N)=O)CC(C)(C)OC2(C)C [Compound 105, N-(3-carbamoyl-5,5,7,7-tetramethyl-4H-thieno[2,3-c]pyran-2-yl)-4-(methoxymethyl)-1H-pyrazole-3-carboxamide] |
| 116 | – | 6.93 | 165 | 88.6 | 164 | 92 | – | 4 | CC1(C)Cc2c(sc(NC(=O)c3n[nH]cc3Br)c2C(N)=O)C(C)(C)O1 [Compound 33, 4-bromo-N-(3-carbamoyl-5,5,7,7-tetramethyl-5,7-dihydro-4H-thieno[2,3-c]pyran-2-yl)-1H-pyrazole-3-carboxamide] |
| 371 | – | 9.44 | 207 | 169 | 253 | 377 | – | 32.2 | CC(C)c1cc(C(=O)Nc2sc3c(c2C(N)=O)CC(C)(C)OC3(C)C)n[nH]1 [Compound 14, N-(3-carbamoyl-5,5,7,7-tetramethyl-5,7-dihydro-4H-thieno[2,3-c]pyran-2-yl)-5-isopropyl-1H-pyrazole-3-carboxamide] |
